Measured values reported in patent US10413594B2, “Conjugates of somatostatin analogues” (ProLynx LLC, priority 2013, dated 2019).
Where a name gives a salt, the structure may show the parent alone. Starred links: 1 amine or outer side, 2 acyl side, 3 side chain; linkers in the order of their positions; H or OH if unused. Non-standard residues stand in square brackets, D forms with d. Residues, ends and D or L forms follow the SMILES beside them. Groups on a side chain read outwards from the residue. *: point of attachment. Ethylenediamine = C(CN[*:2])N[*:1]; Hyp = O=C(O)[C@@H]1C[C@@H](O)CN1; Phg = N[C@H](C(=O)O)c1ccccc1; CO = O=C([*:1])[*:2]; Bn = c1ccc(C*)cc1

How the values were obtained:
[1] = In vivo pharmacokinetics after IV injection in cannulated rats; conditions: Sprague Dawley, rat, plasma, 56 mg/kg conjugate
Procedure: PK assays on the conjugates of Example 5 were performed on cannulated Sprague Dawley rats. […] Blood samples were collected at 0, 1, 2, 4, 8, 12, 24, 48, 72, and 120 hours. At each timepoint a 300 μL blood sample was added to 30 μL of a 1M citrate/0.1% Pluronic® F68 solution, pH 4.5 to lower the pH and remove coagulation factors to give plasma.
A portion of the plasma samples were precipitated by addition of 3 parts acetonitrile and centrifuged at 16000×g for 10 minutes. The samples were analyzed by HPLC for PEG-peptide conjugate and PEG-remnant concentrations. Concentrations were calculated by comparison of peak areas to a standard curve.
A portion of the releasable plasma samples was analyzed by LC/MSMS for free octreotide (MedPace).
The volume of distribution (100 mL/kg) is also in line with previous PEG conjugate, typically measured at the approximate blood volume of the rat (70 mL/kg).

[2] = subcutaneous administration; cited from earlier work
[3] = subcutaneous administration; cited from earlier work; remark: listed apart in the source
somatostatin receptor 5 = somatostatin receptor 5 (Homo sapiens, UniProt P35346); conditions: relative to other somatostatin analogs; cited from earlier work
Sequence of somatostatin receptor 5 (P35346 whole entry): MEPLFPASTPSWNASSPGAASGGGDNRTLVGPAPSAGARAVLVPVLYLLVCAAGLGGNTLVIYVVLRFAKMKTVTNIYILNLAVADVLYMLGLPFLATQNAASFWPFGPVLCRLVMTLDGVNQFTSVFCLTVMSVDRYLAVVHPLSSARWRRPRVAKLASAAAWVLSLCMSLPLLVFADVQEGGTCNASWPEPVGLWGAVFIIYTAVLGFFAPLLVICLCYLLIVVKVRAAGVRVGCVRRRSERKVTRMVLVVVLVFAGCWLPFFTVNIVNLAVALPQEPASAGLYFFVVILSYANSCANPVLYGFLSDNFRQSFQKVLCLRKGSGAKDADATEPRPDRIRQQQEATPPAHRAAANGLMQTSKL

Row | SMILES | half-life [1] [h] | average half-life of elimination from plasma [2] [h] | effective half-life [3] | volume of distribution [3] [L] | increased affinity to somatostatin receptor 5 than other somatostatin analogs (somatostatin receptor 5) [fold]
1 | C[C@@H](O)[C@@H]1NC(=O)[C@H](CCCCN)NC(=O)[C@@H](Cc2c[nH]c3ccccc23)NC(=O)[C@H](Cc2ccccc2)NC(=O)[C@@H](NC(=O)[C@H](N)Cc2ccccc2)CSSCC(C(=O)N[C@H](CO)[C@@H](C)O)NC1=O (relative stereo) [Octreotide, D-phenylalanyl-L-cysteinyl-L-phenylalanyl-D-tryptophyl-L-lysyl-L-threonyl-N-[2-hydroxy-1-(hydroxymethyl)propyl]-L-Cysteinamide, cyclic (2→7)-disulfide; [R—(R*,R*)]] | 50 | 1.7 | – | – | –
2 | NCCCC[C@@H]1NC(=O)[C@@H](Cc2c[nH]c3ccccc23)NC(=O)[C@H](c2ccccc2)NC(=O)[C@@H]2C[C@@H](OC(=O)NCCN)CN2C(=O)[C@H](Cc2ccccc2)NC(=O)[C@H](Cc2ccc(OCc3ccccc3)cc2)NC1=O [Pasireotide, (2-aminoethyl) carbamic acid (2R,5,8S,11S,14R,17S,19aS)-11-(4-aminobutyl)-5-benzyl-8-(4-benzyloxybenzyl)-14-(1H-indol-3ylmethyl)-4,7,10,13,16,19-hexaoxo-17-phenyloctadecahydro-3a,6,9,12,15,18-hexaazacyclopentacyclooctadecen-2-yl ester, di[(S)-2-aminosuccinic acid] salt] (cyclo([Hyp]([CO-Ethylenediamine])[Phg][dW]KY(Bn)F)) | – | – | approximately 12 h | > 100 | 40
